Measured values taken from PMC11887051, “Discovery of ONO-2920632 (VU6011887): A Highly Selective and CNS Penetrant TREK-2 (TWIK-Related K+ Channel 2) Preferring Activator In Vivo Tool Compound” (ACS Chemical Neuroscience, 2025).

Tests used:
TREK-1 [1] = target: T1, TREK-1 (Homo sapiens, UniProt O95069); experiment: TREK-1 thallium flux assay (hTREK-1/CHO); type: cell-based; design: host or cells: CHO; settings: for Emax: % activation relative to 10 µM BL-1249
T1 sequence (O95069 1-426): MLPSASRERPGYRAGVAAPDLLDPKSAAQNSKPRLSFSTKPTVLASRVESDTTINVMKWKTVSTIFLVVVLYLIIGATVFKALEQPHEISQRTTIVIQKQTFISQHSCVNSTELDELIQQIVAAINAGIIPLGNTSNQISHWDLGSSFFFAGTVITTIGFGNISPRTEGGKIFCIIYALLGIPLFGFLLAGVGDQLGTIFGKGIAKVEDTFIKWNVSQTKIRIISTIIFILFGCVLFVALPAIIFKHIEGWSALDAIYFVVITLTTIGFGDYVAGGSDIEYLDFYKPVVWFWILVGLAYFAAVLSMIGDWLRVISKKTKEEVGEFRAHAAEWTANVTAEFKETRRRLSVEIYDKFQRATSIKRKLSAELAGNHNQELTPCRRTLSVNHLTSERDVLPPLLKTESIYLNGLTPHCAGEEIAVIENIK
Experimental: (§1) Procedures for Biological Experiments
TREK-1 and TREK-2 thallium flux assay protocol
CHO cells stably expressing human TREK-1 (hTREK-1/CHO) were constructed at Evotec. […]
(§2) hTREK-1/CHO or hTREK-2/HEK were plated in 384-well plates at a density of 1.0x10^4 cells/well or 2.0x10^4 cells/well, respectively, and cultured overnight. After the wash by HBSS + 20 mM HEPES buffer, cells were loaded with Thallos dye for 1 hour at room temperature. After the wash […]
(§3) dissolved with HBSS + 20mM HEPES buffer were added to each well. After 10 minutes incubation at room temperature, thallium stimulus buffer were added to each well and the fluorescent intensity are measured by Panoptic. The final thallium concentration was 0.36 mM in […]
(§4) TREK-1 or 0.24 mM in TREK-2, respectively. […]

[2] = design: method as in PMID 31072652; settings: previously reported; cited from earlier work
TREK-2 [3] = target: T2, TREK-2 (Homo sapiens, UniProt P57789); design: method as in PMID 31072652; settings: previously reported; cited from earlier work
T2 sequence (P57789 1-538): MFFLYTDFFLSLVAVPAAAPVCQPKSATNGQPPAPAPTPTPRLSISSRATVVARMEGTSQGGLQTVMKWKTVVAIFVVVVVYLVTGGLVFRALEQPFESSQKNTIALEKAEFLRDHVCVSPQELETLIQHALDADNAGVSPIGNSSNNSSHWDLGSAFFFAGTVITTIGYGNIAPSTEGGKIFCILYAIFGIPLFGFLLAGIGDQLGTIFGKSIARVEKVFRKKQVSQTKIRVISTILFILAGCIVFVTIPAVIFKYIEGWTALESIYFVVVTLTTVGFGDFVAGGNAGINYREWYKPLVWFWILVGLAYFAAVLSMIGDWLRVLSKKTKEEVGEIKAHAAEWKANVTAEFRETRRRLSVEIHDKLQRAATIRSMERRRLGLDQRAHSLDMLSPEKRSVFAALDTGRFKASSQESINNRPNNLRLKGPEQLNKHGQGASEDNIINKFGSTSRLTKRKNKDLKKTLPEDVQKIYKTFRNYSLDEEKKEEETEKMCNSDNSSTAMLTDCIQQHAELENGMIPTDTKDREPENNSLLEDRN

TREK-1 [4] = target: T1, TREK-1; design: method as in PMID 31072652; settings: previously reported; cited from earlier work
[5] = design: method as in PMID 31072652; settings: previously reported; cited from earlier work; remark: listed apart in the source
TREK-2 [6] = target: T2, TREK-2; experiment: TREK-2 thallium flux assay (hTREK-2/HEK); type: cell-based; design: expressed in transfected cells; host or cells: HEK293; settings: for Emax: % activation relative to 10 µM BL-1249
Experimental: as §1
TREK-1 and TREK-2 thallium flux assay protocol […]
as §2, with “HEK293 cells stably expressing human TREK-2 (hTREK-2/HEK) were constructed at Ono. hTREK-1/CHO” for “hTREK-1/CHO”
as §3, §4

TREK-2 [7] = target: T2, TREK-2; experiment: human 86Rb flux K2P selectivity panel; type: cell-based; settings: data is not shown
TASK-1 = experiment: human 86Rb flux K2P selectivity panel; type: cell-based; settings: 86Rb flux K2P panel
TRAAK = experiment: human 86Rb flux K2P selectivity panel; type: cell-based; settings: 86Rb flux K2P panel
TREK-1 [8] = target: T1, TREK-1; experiment: human 86Rb flux K2P selectivity panel; type: cell-based; settings: data is not shown
mouse TREK-1 = target: T3, mouse TREK-1 (Mus musculus, UniProt P97438); experiment: mouse TREK-1 MPC assay; type: cell-based; settings: manual patch clamp
T3 sequence (P97438 1-426): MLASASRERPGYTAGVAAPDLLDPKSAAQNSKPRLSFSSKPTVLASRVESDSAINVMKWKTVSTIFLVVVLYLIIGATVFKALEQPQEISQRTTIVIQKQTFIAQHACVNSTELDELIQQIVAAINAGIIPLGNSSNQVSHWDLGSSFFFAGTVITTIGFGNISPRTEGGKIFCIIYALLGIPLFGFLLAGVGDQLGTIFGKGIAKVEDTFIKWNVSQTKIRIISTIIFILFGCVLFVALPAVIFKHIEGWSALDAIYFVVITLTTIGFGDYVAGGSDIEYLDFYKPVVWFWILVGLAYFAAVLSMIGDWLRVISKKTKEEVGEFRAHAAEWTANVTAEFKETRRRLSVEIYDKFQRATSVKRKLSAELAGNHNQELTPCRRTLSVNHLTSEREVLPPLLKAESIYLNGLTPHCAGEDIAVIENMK

TASK-3 = experiment: human 86Rb flux K2P selectivity panel; type: cell-based; settings: 86Rb flux K2P panel
TWIK-2 = experiment: human 86Rb flux K2P selectivity panel; type: cell-based; settings: 86Rb flux K2P panel
mouse TREK-2 = target: T4, mouse TREK-2 (Mus musculus, UniProt Q8BUW1); experiment: mouse TREK-2 MPC assay; type: cell-based; settings: mouse, manual patch clamp
T4 sequence (Q8BUW1 1-535): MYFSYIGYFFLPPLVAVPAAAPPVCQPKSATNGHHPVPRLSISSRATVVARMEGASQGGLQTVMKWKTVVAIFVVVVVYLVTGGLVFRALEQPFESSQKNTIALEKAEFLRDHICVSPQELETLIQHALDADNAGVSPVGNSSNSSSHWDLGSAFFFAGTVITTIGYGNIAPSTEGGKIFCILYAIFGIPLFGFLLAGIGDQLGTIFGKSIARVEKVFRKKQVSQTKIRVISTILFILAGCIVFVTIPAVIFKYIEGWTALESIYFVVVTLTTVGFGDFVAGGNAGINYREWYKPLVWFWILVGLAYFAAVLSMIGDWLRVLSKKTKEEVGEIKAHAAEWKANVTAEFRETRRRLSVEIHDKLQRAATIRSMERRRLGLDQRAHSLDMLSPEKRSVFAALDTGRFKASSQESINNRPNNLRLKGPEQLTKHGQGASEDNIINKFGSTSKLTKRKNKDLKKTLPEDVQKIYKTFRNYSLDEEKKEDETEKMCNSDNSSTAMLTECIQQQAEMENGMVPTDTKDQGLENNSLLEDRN

TRESK = target: T5, TRESK (Homo sapiens, UniProt Q7Z418); experiment: human 86Rb flux K2P selectivity panel; type: cell-based; settings: 86Rb flux K2P panel
T5 sequence (Q7Z418 1-384): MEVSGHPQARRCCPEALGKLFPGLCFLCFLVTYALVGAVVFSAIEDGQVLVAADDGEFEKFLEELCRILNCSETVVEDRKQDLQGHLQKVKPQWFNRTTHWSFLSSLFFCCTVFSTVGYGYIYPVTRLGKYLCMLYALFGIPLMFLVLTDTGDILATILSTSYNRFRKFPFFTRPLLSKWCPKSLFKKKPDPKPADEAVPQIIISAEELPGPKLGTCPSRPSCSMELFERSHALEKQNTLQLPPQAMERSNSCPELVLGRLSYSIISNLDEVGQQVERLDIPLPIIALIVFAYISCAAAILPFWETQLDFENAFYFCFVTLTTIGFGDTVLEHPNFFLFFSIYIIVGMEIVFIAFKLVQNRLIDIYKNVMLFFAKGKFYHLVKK

TASK-2 = experiment: human 86Rb flux K2P selectivity panel; type: cell-based; settings: 86Rb flux K2P panel
[9] = control compound, table footnote

| EC50 (TREK-1 [1]) [nM] | Emax (TREK-1 [1]) [%] | EC50 (TREK-2 [6]) [nM] | Emax (TREK-2 [6]) [%] | Compound | rat CLhep (predicted hepatic clearance) [2] [mL/min/kg] | TREK-2 Emax (TREK-2 [3]) [%] | TREK-1 Emax (TREK-1 [4]) [%] | rat plasma fu [5] | also measured |
| --- | --- | --- | --- | --- | --- | --- | --- | --- | --- |
| – | – | – | – | c1ccc(-c2nnn[nH]2)c(Nc2cccc3c2CCCC3)c1 [BL-1249, (5,6,7,8-tetrahydro-naphthalen-1-yl)-[2-(1H-tetrazol-5-yl)-phenyl]-amine, reference compound] | > 50.9 | 133 ± 23 | 109 ± 14 | < 0.001 | IC50 (TREK-1 [1]; [9]): 5.2 µM; IC50 (TREK-2 [6]; [9]): 7.3 µM |
| – | – | – | – | O=C(Nc1cc(F)c(Br)cc1C(=O)O)c1ccc(SC(F)(F)F)cc1 [Compound 8] | 35.5 | 84 | 101 | 0.041 | – |
| 1500 | 42 | 410 | 158 | COc1cc(OC(F)(F)F)ccc1CNC(=O)c1ccc(-n2cncn2)nc1 [Compound 14b] | – | – | – | – | Fold TREK-2 (TREK-2 [6]; TREK-2 preference over TREK-1, thallium flux): 3.7 fold |
| ~1100 | 20 | 360 | 109 | Cc1cc(OC(F)(F)F)ccc1CNC(=O)c1ccc(-n2cncn2)nc1 [Compound 14c] | – | – | – | – | activity at TREK-2 in 86Rb flux panel (TREK-2 [7]): submicromolar TREK-2 activator; selectivity against TASK-1 over TREK-2 (TASK-1): > 43 fold; selectivity against TRAAK over TREK-2 (TRAAK): > 43 fold; activity at TREK-1 in 86Rb flux panel (TREK-1 [8]): partial TREK-1 activator; EC50 (mouse TREK-1): 2800 nM; Emax (mouse TREK-1): 31%; selectivity against TASK-3 over TREK-2 (TASK-3): > 43 fold; selectivity against TWIK-2 over TREK-2 (TWIK-2): > 43 fold; EC50 (mouse TREK-2): 310 nM; Emax (mouse TREK-2): 72%; selectivity against TRESK over TREK-2 (TRESK): > 43 fold; selectivity against TASK-2 over TREK-2 (TASK-2): > 43 fold |
